Test results reported in patent US12298319B2, “Method for measuring alpha value of muscarinic M1 receptor positive allosteric modulators” (Takeda Pharmaceutical Company Limited, priority 2017, dated 2025).
One block for each compound: values may come before it.

Columns and labels:
mice = assay: Assessment of diarrhea in mice; format: in vivo, mouse; conditions: for diarrhea induction: mice
Method: FIG. 1 depicts diarrhea induction by Compound C treatment in WT and M1R KO mice (hereinafter sometimes to be indicated as “MIKO mouse” in the present DESCRIPTION) (Example 11). […] The maximum score during the observation was adopted.
On the day of the experiment, mice were randomly divided into four groups (n=6-9). […] Each mouse was treated with either vehicle (10 or 20 mL/kg) or a single dose of each compound, including Compound A (3, 10 or 30 mg/kg p.o.), Compound B (10, 30, 100, 300 or 1,000 mg/kg p.o.) or Compound C (10 mg/kg p.o.). The animals were monitored, and scored the severity of diarrhea at 0.5, 1, 2, 4 and 6 h after administration. […] The highest score during the observation was adopted.

[1] = tested on: scopolamine-induced cognitive deficits in mice; assay: Y-maze task, scopolamine-induced cognitive deficits; format: in vivo, mouse; conditions: for scopolamine-induced cognitive deficits in Y-maze task: 5-min measurement
Method: The Y-maze apparatus has a three-arm maze with equal angles between all arms and made of black colored acrylic. Each arm consisted of 40 cm length, 4 cm width, and 12 cm walls. The Y-maze was located in a sound-attenuated room and illuminated at 10 lux. Compound B (10 or 30 mg/kg) and Compound A (1, 3 or 10 mg/kg) were pretreated orally at 60 min prior to the testing. After 30 min, memory impairment was induced by administering scopolamine (0.3 or 1 mg/kg, as hydrobromide salt, s.c.). At 30 min after the administration of scopolamine, mice were placed in the Y-maze and then spontaneous alternation performance was assessed visually for 5 to 8 min. Each animal underwent one trial. A mouse was considered to have entered an arm when all four paws were positioned in one third of the arm runway from the center of the Y maze. Alternations were defined as successive entries into each of the three arms on overlapping triplet sets, and alternation rate, expressed as a percentage, referred to the ratio of actual (total alternations) to possible alternations (total arm entries−2)×100.

M3R = M3R (Homo sapiens, UniProt P20309); assay: Ca2+ flux assay in CHO-K1 cells expressing human M3R; format: cell-based; set-up: expressed in transfected cells; host or cells: CHO-K1; conditions: read-out: IP for M3R
Sequence of M3R (P20309 whole entry): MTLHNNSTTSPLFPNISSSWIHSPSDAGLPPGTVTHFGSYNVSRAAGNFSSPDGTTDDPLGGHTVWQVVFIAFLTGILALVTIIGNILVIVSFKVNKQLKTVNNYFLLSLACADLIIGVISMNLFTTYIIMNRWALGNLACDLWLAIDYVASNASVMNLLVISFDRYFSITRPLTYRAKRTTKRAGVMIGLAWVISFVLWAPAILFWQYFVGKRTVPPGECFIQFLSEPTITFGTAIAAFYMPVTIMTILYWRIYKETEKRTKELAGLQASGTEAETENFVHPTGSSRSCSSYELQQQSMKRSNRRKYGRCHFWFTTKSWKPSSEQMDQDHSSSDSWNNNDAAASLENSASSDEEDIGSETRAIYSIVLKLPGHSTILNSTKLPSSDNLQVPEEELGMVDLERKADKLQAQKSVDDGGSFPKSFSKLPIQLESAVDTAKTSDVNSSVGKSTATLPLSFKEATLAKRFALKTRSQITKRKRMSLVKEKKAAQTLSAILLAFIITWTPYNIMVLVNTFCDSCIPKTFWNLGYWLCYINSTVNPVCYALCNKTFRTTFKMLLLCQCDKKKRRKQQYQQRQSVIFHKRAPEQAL

[2] = tested on: IP1 production in the hippocampus; assay: In vivo IP1 assay, hippocampus of wild-type and M1R KO mice; set-up: species or system mouse
Text: Hippocampus was isolated from the brain.

isolated mouse ileum = assay: In vitro Magnus method, spontaneous ileum motility; conditions: cumulative concentrations
Method: After overnight fasting, mice were sacrificed. The ileum was quickly dissected out and suspended in ice-cold Krebs solution with the following composition (in mM): NaCl, 120.7; KCl, 5.9; CaCl2, 2.5; MgCl2, 1.2; NaHCO3, 15.5; NaH2PO4, 1.2; and glucose, 11.5. Longitudinal segments of ileum (10-15 mm long) were detached of mesentery and adipose tissue, and mounted in organ baths containing 10 mL of Krebs solution aerated with 95% O2/5% CO2. Bath temperature was maintained at 37° C. The isolated ileum was given a passive load of 0.5 g. The contractile response of the isolated ileum was continuously recorded with isometric transducer (MLT050/A, ADInstruments, New South Wales, Australia) and recorder (PowerLab 8/30 ML870 and Octal Bridge Amp ML228, ADInstruments). […]
The contraction was measured as the maximum strength from the baseline. The effects of experimental substances on the maximum contraction were measured. […] The effect of each concentration of the compounds on ileum spontaneous contraction induced was calculated from the average value of 6 responses of the maximum strength. Then the ileum contractile response was expressed as a ratio of the mean maximum contraction to that obtained with the pre-treated DMSO (solvent). […] Due to very small size of relaxations, the effects of the compounds on them was not be analyzed.

M4R = target: T1, M4R (Homo sapiens, UniProt P08173); assay: Ca2+ flux assay in CHO-K1 cells expressing human M4R; format: cell-based; set-up: expressed in transfected cells; host or cells: CHO-K1; conditions: read-out: IP for M4R
T1 sequence (P08173 1-479): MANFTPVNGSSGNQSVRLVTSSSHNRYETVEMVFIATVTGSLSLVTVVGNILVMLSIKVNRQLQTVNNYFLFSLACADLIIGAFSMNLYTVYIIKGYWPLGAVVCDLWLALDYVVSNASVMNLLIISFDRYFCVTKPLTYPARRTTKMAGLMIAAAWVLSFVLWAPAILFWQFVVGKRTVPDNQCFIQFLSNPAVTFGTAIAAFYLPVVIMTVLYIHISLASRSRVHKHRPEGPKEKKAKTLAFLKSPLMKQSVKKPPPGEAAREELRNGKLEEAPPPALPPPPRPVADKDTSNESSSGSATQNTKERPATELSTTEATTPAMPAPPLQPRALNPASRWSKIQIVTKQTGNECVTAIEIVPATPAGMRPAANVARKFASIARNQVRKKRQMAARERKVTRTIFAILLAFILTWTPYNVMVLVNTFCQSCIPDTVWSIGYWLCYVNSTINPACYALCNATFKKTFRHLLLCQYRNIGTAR

SMILES: Cn1cc(-c2ccc(CN3Cc4cccc(Oc5c(F)cccc5C#N)c4C3=O)cc2)cn1 [Compound B, 3-fluoro-2-((2-(4-(1-methyl-1H-pyrazol-4-yl)benzyl)-3-oxo-2,3-dihydro-1H-isoindol-4-yl)oxy)benzonitrile]
- diarrhea induction (mice; up to 1000 mg/kg p.o.): did not induce severe diarrhea
- scopolamine-induced cognitive deficits in Y-maze task ([1]; 30 mg/kg p.o.): significantly ameliorated

SMILES: Cn1ccc(-c2ccc(CN3Cc4cccc(O[C@H]5CCCC[C@@H]5O)c4C3=O)cc2)n1 [Compound A, 7-(((1S,2S)-2-hydroxycyclohexyl)oxy)-2-(4-(1-methyl-1H-pyrazol-3-yl)benzyl)isoindolin-1-one]
- diarrhea induction (mice; 10 and 30 mg/kg p.o.): caused severe diarrhea
- scopolamine-induced cognitive deficits in Y-maze task ([1]; 10 mg/kg p.o.): trends to improve
- scopolamine-induced decrease in spontaneous alternation ratio in Y-maze task ([1]; 10 mg/kg p.o., 8 min measurement): significantly ameliorated

SMILES: Cn1cc(-c2ccc(Cc3cc4c(=O)n([C@H]5CCCC[C@@H]5O)cnc4c4ccccc34)cn2)cn1 [Compound C, 3-((1S,2S)-2-hydroxycyclohexyl)-6-((6-(1-methyl-1H-pyrazol-4-yl)pyridin-3-yl)methyl)benzo[h]quinazoline-4(3H)-one, reference compound]
- EC50 (M3R): > 1 µM
- IP1 production in the hippocampus ([2]; M1R KO mice, 10 mg/kg p.o.): not in M1R KO mice
- IP1 production in the hippocampus ([2]; wild-type mice, 10 mg/kg p.o.): significantly induced IP1 production
- diarrhea induction in M1R KO mice (mice; 10 mg/kg p.o., M1R KO mice): not in M1R KO mice
- diarrhea induction in WT mice (mice; 10 mg/kg p.o., WT mice): induced diarrhea
- spontaneous ileum motility (isolated mouse ileum): strengthened the spontaneous ileum motility in a concentration-dependent manner
- EC50 (M4R): > 1 µM

- EC50 (M3R): > 10 µM
- EC50 (M4R): > 10 µM
SMILES: Cc1c(Cc2ccc(-n3cccn3)cc2)cc2c(c1F)CN([C@H]1COCC[C@@H]1O)C2=O [Compound D, 4-fluoro-2-[(3S,4S)-4-hydroxytetrahydro-2H-pyran-3-yl]-5-methyl-6-[4-(1H-pyrazol-1-yl)benzyl]-2,3-dihydro-1H-isoindol-1-one]
- IP1 production in the hippocampus ([2]; M1R KO mice, 3 mg/kg p.o.): did not induce IP1 production
- IP1 production in the hippocampus ([2]; wild-type mice, 3 mg/kg p.o., 3 h, % of vehicle-treated control): 153.3±9.3%
- spontaneous ileum motility (isolated mouse ileum): lower impact on ileum motility
